Laboratory results: US7928126B2, “Cyanopyridine derivative and use thereof as medicine” (Mitsubishi Tanabe Pharma Corporation, priority 2005, dated 2011)
Counter-ions that a name gives are not always drawn.

Assays:
[1] = biological target: T1, aurora 2 kinase (Homo sapiens, UniProt O14965); test: Aurora 2 kinase assay (32P-ATP, peptide substrate LRRASLG); type: biochemical; settings: room temperature 60 min
T1 construct: The amplified gene encoding aurora 2 kinase was introduced into Escherichia coli expression vector pET32a; made in house; host or cells: Escherichia coli BL21R (Novagen), vector pET32a
T1 sequence (O14965 1-403): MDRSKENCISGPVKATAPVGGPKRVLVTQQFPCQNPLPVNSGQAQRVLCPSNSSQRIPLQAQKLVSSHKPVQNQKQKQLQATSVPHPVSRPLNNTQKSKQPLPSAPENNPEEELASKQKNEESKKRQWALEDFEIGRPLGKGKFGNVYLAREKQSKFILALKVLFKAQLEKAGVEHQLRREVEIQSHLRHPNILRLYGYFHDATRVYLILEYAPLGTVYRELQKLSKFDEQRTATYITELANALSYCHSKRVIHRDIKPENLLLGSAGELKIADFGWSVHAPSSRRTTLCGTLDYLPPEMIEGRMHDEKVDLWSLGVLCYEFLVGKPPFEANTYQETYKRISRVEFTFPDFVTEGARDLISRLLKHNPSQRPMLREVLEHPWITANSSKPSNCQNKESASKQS

[2] = biological target: T2, aurora 1 kinase (Homo sapiens, UniProt Q96GD4); test: Aurora 1 kinase assay (32P-ATP, peptide substrate LRRWSLG); type: biochemical; settings: room temperature 60 min
T2 construct: purchased UPSTATE

[3] = biological target: T3, Porcine brain tubulin protein (Sus scrofa, UniProt P02550+P02554); test: Tubulin polymerization assay (turbidity at 405 nm); type: biochemical; settings: 10 μM compound, maximum polymerization rate, 37° C.; read-out: inhibitory rate (%)
T3 construct: 3.3 mg/ml Porcine brain tubulin protein: Cytoskeleton; purchased Cytoskeleton; host or cells: porcine brain (tissue-derived)
Method: A tubulin polymerization reaction mixture (50 μL) (80 mM Pipes pH=6.9, 0.5 mM MgCl2, 1 mM EGTA, 1 mM GTP, 3.3 mg/ml Porcine brain tubulin protein: Cytoskeleton, 10 μM compound) was prepared in a 96 well flat bottom plate under ice-cooling. This was placed in a plate reader (IWAKI microplate reader, EZS-ABS) controlled to a temperature of 37° C., whereby a temperature dependent tubulin polymerization reaction was initiated. Since the turbidity of the reaction mixture increases as the tubulin polymerization proceeds, the absorbance at 405 nm was measured every other minute for 30 min to monitor the polymerization reaction. Of the 30 min measures, the three largest differences per min of turbidity (generally those immediately after start of the reaction) were taken, and the average of the three values was calculated and taken as the maximum polymerization rate. Inhibitory percent (%)=(C−T)/C×100 wherein T is the maximum polymerization rate of the reaction mixture containing the compound, and C is the maximum polymerization rate of the reaction mixture without the compound.

[4] = test system: human colon cancer cell line HCT-116; test: Cancer cell growth inhibition (WST-8), HCT-116; type: cell-based; settings: HCT-116, 72 h, HCT116, 3 days, read-out: Cell proliferation suppressive activity value IC50
Method: (§1) Using RPMI1640 medium (manufactured by SIGMA) containing 10% fetal bovine serum, human prostate cancer cell line PC-3, human pancreatic cancer cell line PK-8, and human breast cancer cell line MDA-MB-453 were cultured at 37° C. under 5% CO2. Using DMEM/F-12 medium (manufactured by SIGMA) containing 10% fetal bovine serum, human colon cancer cell line HCT-116, human colon cancer cell line SW620, human ovarian cancer cell line SKOV-3, human prostate cancer cell line DU-145 and human pancreatic cancer cell line PANC-1 were cultured at 37° C. under 5% CO2. These cells were inoculated to a 96 well plate and cultured for one day. Thereto was added a compound diluted with a medium to a final concentration of 0.00064-20 μM (final DMSO concentration, 0.4%). After further cultivation for 3 days, WST-8 (0.16 mg/mL) was added to the culture medium and the culture medium was cultured for 2 hr. The absorbance at 650 nm was subtracted from the absorbance at 450 nm. The growth inhibitory activity was expressed by the decrease rate of the absorbance of compound addition group relative to the absorbance of compound non-addition group, and IC50 value was determined from the dose-reaction curve plotting the decrease rate of the absorbance, which was obtained by changing the concentration of the compound, and the concentration of the compound.

[5] = test system: human colon cancer cell line SW620; test: Cancer cell growth inhibition (WST-8), SW620; type: cell-based; settings: SW-620, 72 h, SW620, 3 days, read-out: Cell proliferation suppressive activity value IC50
Method: as §1

[6] = test system: human prostate cancer cell line PC-3; test: Cancer cell growth inhibition (WST-8), PC-3; type: cell-based; settings: 72 h, PC3, 3 days, read-out: Cell proliferation suppressive activity value IC50
Method: as §1

[7] = test system: human ovarian cancer cell line SKOV-3; test: Cancer cell growth inhibition (WST-8), SKOV-3; type: cell-based; settings: SK-OV-3, 72 h, SKOV3, 3 days, read-out: Cell proliferation suppressive activity value IC50
Method: as §1

[8] = test system: human pancreatic cancer cell line PK-8; test: Cancer cell growth inhibition (WST-8), PK-8; type: cell-based; settings: 72 h, PK8, 3 days, read-out: Cell proliferation suppressive activity value IC50
Method: as §1

[9] = test system: human prostate cancer cell line DU-145; test: Cancer cell growth inhibition (WST-8), DU-145; type: cell-based; settings: DU-145, 72 h, DU145, 3 days, read-out: Cell proliferation suppressive activity value IC50
Method: as §1

[10] = test system: human breast cancer cell line MDA-MB-453; test: Cancer cell growth inhibition (WST-8), MDA-MB-453; type: cell-based; settings: MDA-MB-453, 72 h, MDAMB-453, 3 days, read-out: Cell proliferation suppressive activity value IC50
Method: as §1

[11] = test system: human pancreatic cancer cell line PANC-1; test: Cancer cell growth inhibition (WST-8), PANC-1; type: cell-based; settings: 72 h, PANC-1, 3 days, read-out: Cell proliferation suppressive activity value IC50
Method: as §1

[12] = test system: human cancer cell lines; test: Cancer cell growth inhibitory effect, whole cell line panel; type: cell-based; settings: over the panel of cell lines
Method: as §1

T2 sequence (Q96GD4 whole entry): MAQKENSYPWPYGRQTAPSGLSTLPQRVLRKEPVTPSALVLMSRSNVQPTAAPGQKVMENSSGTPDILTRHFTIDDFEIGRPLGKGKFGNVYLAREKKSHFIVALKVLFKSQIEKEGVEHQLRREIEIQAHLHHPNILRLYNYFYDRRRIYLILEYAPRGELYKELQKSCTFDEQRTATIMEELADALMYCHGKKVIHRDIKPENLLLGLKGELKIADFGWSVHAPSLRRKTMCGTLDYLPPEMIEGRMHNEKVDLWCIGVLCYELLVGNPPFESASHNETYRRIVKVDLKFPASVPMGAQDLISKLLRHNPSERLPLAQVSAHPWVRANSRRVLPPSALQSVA
T3 sequence (P02550 whole entry): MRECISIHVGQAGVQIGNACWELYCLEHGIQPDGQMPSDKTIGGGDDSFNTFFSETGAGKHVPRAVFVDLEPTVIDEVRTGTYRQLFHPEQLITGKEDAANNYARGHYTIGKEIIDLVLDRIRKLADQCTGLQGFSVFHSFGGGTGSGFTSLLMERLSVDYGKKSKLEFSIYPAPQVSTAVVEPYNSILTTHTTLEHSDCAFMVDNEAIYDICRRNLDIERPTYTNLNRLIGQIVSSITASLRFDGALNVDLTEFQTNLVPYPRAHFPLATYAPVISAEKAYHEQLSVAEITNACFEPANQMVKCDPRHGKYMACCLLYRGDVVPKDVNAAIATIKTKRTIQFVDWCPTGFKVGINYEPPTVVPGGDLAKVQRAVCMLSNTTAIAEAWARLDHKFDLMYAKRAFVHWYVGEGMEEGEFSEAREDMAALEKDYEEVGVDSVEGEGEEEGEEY
T3 sequence (P02554 whole entry): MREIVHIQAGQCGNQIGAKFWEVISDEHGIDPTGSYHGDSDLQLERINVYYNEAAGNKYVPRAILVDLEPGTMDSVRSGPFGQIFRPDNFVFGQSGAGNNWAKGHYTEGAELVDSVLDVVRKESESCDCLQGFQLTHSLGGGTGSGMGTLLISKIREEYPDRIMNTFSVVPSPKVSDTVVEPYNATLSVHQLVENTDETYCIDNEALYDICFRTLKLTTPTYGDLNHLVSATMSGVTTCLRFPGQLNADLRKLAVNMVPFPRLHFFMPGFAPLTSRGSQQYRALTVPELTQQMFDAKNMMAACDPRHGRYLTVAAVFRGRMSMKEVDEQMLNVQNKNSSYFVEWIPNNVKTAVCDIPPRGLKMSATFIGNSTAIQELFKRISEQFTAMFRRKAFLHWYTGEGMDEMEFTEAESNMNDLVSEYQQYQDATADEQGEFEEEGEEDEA

SMILES	Ki [1] [nM]	Ki [2] [nM]	inhibition at 10 µM [3] [%]	IC50 [4] [nM]	IC50 [5] [nM]	IC50 [6] [nM]	IC50 [7] [nM]	IC50 [8] [nM]	IC50 [9] [nM]	IC50 [10] [nM]	IC50 [11] [nM]	cancer cell growth inhibitory action (in words) [12]
Cc1cc(Nc2cc(C)c(C#N)c(NCCOc3cccnc3C)n2)n[nH]1 [Example 22, 2-(2-(2-methylpyridin-3-yloxy)ethylamino)-6-(5-methyl-1H-pyrazol-3-ylamino)-4-methylnicotinonitrile dihydrochloride]	4	–	79	4	< 6.4	15	4	7	8	< 6.4	< 6.4	good cancer cell growth inhibitory action over a broad range
Cc1ccc(OCCNc2nc(Nc3cc(C)[nH]n3)cc(C)c2C#N)c(C)n1 [Example 23, 2-(2-(2,6-dimethylpyridin-3-yloxy)ethylamino)-6-(5-methyl-1H-pyrazol-3-ylamino)-4-methylnicotinonitrile dihydrochloride]	10	–	77	37	40	21	8	13	50	40	3	good cancer cell growth inhibitory action over a broad range
Cc1cc(Nc2ccc(C#N)c(NCCOc3cccnc3C)n2)n[nH]1 [Example 28, 2-(2-(2-methylpyridin-3-yloxy)ethylamino)-6-(5-methyl-1H-pyrazol-3-ylamino)nicotinonitrile dihydrochloride]	4	≤ 100	69	3	< 6.4	< 6.4	< 6.4	< 6.4	19	4	6180	–

Continued, in another order:

Ki [1] [nM]	Ki [2] [nM]	inhibition at 10 µM [3] [%]	IC50 [4] [nM]	IC50 [5] [nM]	IC50 [6] [nM]	IC50 [7] [nM]	IC50 [8] [nM]	IC50 [9] [nM]	IC50 [10] [nM]	IC50 [11] [nM]	SMILES	cancer cell growth inhibitory action (in words) [12]
3	≤ 100	69	11	8	17	10	18	7	7	1290	Cc1cc(Nc2cc(C)c(C#N)c(NCCOc3ccccc3)n2)n[nH]1 [Example 2, 2-(2-phenoxyethylamino)-6-(5-methyl-1H-pyrazol-3-ylamino)-4-methylnicotinonitrile]	–
1	–	86	17	< 6.4	< 6.4	< 6.4	83	647	< 6.4	1180	Cc1cc(Nc2cc(C)c(C#N)c(NCCOc3cccc(F)c3)n2)n[nH]1 [Example 9, 2-(2-(3-fluorophenoxy)ethylamino)-6-(5-methyl-1H-pyrazol-3-ylamino)-4-methylnicotinonitrile hydrochloride]	–
2	≤ 100	44	2	< 6.4	7	1	4	7	3	9	Cc1cc(Nc2cc(C)c(C#N)c(NCCOc3cccnc3)n2)n[nH]1 [Example 12, 2-(2-(pyridin-3-yloxy)ethylamino)-6-(5-methyl-1H-pyrazol-3-ylamino)-4-methylnicotinonitrile dihydrochloride]	good cancer cell growth inhibitory action over a broad range
2	≤ 100	63	7	5	4	3	8	13	12	14	Cc1ccc(OCCNc2nc(Nc3cc(C)[nH]n3)cc(C)c2C#N)cn1 [Example 21, 2-(2-(6-methylpyridin-3-yloxy)ethylamino)-6-(5-methyl-1H-pyrazol-3-ylamino)-4-methylnicotinonitrile]	good cancer cell growth inhibitory action over a broad range
